Experiments:
[1] = Blood pressure by tail-cuff method, Test Example 1; type: in vivo, ddY mouse
Protocol: The therapeutic effect of olmesartan medoxomil in Aβ injection model and the dose dependency thereof were examined according to the following experimental schedule. [Experimental Schedule]: Prior to the experiment, 8-week old male ddY mice were administered olmesartan medoxomil (0.5 mg/kg/day, 1 mg/kg/day, 3 mg/kg/day or 6 mg/kg/day) or distilled water orally for four weeks (day −28 to −1). Then, Aβ 1-40 was administered to the mice intracerebroventricularly (day 0). (Although Aβ 1-40 was administered into one of the lateral ventricles in WO 2006/059777, Aβ 1-40 was administered in Test Example 1 to both lateral ventricles with an interval of one day between two administrations. Except for this point, Aβ 1-40 administration was performed in the same manner as in WO 2006/059777.) From one week thereafter, a behavioral test to evaluate cognitive function (Morris water maze test; Morris R et al., J Neuroscience Methods 1984, 11, 47-60) was performed (day 7 to 12). As a negative control, mice which had received oral administration of distilled water for four weeks were administered Aβ 40-1 intracerebroventricularly. The administration of olmesartan medoxomil or distilled water was continued until the end of the behavioral test. Measurements were performed as described below. • Hidden platform test: A platform is placed below the water surface of a water pool 150 cm in diameter filled with white water-colored. Mice are released into the water, and the time it takes them to reach the platform is measured. This trial is performed three times a day and for five consecutive days. As they learn, mice become able to reach the platform more quickly day by day. • Visible platform test: Mice are released into the water under such conditions that they can see the platform. The time it takes them to reach the platform is measured. • Probe test: The platform is removed, and mice are released and allowed to swim freely. […] The time they spent in that quadrant is measured. • Annnulus crossing: The number of times mice crossed the platform in the probe test is counted. […]

[2] = tested on: Aβ injection model (Aβ 1-40 administered intracerebroventricularly); assay: Morris water maze test in Aβ injection model, Test Example 1; type: in vivo, ddY mouse
Protocol: The therapeutic effect of olmesartan medoxomil in Aβ injection model and the dose dependency thereof were examined according to the following experimental schedule. [Experimental Schedule]: Prior to the experiment, 8-week old male ddY mice were administered olmesartan medoxomil (0.5 mg/kg/day, 1 mg/kg/day, 3 mg/kg/day or 6 mg/kg/day) or distilled water orally for four weeks (day −28 to −1). Then, Aβ 1-40 was administered to the mice intracerebroventricularly (day 0). (Although Aβ 1-40 was administered into one of the lateral ventricles in WO 2006/059777, Aβ 1-40 was administered in Test Example 1 to both lateral ventricles with an interval of one day between two administrations. Except for this point, Aβ 1-40 administration was performed in the same manner as in WO 2006/059777.) From one week thereafter, a behavioral test to evaluate cognitive function (Morris water maze test; Morris R et al., J Neuroscience Methods 1984, 11, 47-60) was performed (day 7 to 12). As a negative control, mice which had received oral administration of distilled water for four weeks were administered Aβ 40-1 intracerebroventricularly. The administration of olmesartan medoxomil or distilled water was continued until the end of the behavioral test. Measurements were performed as described below. • Hidden platform test: A platform is placed below the water surface of a water pool 150 cm in diameter filled with white water-colored. Mice are released into the water, and the time it takes them to reach the platform is measured. This trial is performed three times a day and for five consecutive days. As they learn, mice become able to reach the platform more quickly day by day. • Visible platform test: Mice are released into the water under such conditions that they can see the platform. The time it takes them to reach the platform is measured. • Probe test: The platform is removed, and mice are released and allowed to swim freely. Those mice with good learning/memory swim in the quadrant where the platform was located searching for the platform. The time they spent in that quadrant is measured. • Annnulus crossing: The number of times mice crossed the platform in the probe test is counted.

[3] = 0.5 mg/kg/day oral, versus Aβ 1-40 administration group
[4] = 1.0 mg/kg/day oral, versus Aβ 1-40 administration group

CCCc1nc(C(C)(C)O)c(C(=O)OCc2oc(=O)oc2C)n1Cc1ccc(-c2ccccc2-c2nnn[nH]2)cc1 [olmesartan medoxomil, (5-methyl-2-oxo-1,3-dioxolen-4-yl)methyl 4-(1-hydroxy-1-methylethyl)-2-propyl-1-[4-[2-(tetrazol-5-yl)phenyl]phenyl]methyl-imidazole-5-carboxylate]
blood pressure compared to the distilled water administration group ([1]; after 4-week oral administration (day −1), olmesartan medoxomil administration groups (0.5, 1, 3, 6 mg/kg/day)): significantly lowered | blood pressure ([1]; immediately after Aβ administration (day 2) and after completion of the behavioral test (day 14)): A similar tendency was observed | blood pressure ([1]; lowest dose 0.5 mg/kg/day oral, after 4-week administration (day −1)): significant lowering | hidden platform test: escape latency (impairment in spatial memory and learning ability) [2, 3]: improved significantly | probe test: time spent in the target quadrant [2, 3]: significantly improved | hidden platform test: escape latency (impairment in spatial memory and learning ability) [2, 4]: improved significantly | number of annulus crossings [2, 4]: significantly improved | probe test: time spent in the target quadrant [2, 4]: significantly improved | hidden platform test: escape latency (impairment in spatial memory and learning ability) ([2]; 3.0 mg/kg/day oral, versus Aβ 1-40 administration group): improved significantly | improvement of impairment in spatial memory and learning evoked by Aβ 1-40 ([2]; high dose groups (3-6 mg/kg/day)): not observed | improvement of impairment in spatial memory and learning evoked by Aβ 1-40 ([2]; low dose groups (0.5-1 mg/kg/day)): observed | cognitive impairment (spatial memory and learning) in Morris water maze test, overall ([2]; oral administration for four weeks in advance of Aβ 1-40): significantly improved
